Measurements taken from patent publication US10738097B2, “Interferon-beta analog peptide” (priority 2017, dated 2020).

Experiments:
Assay type in all cases: in vivo, mouse
EAE-induced C57BL/6 mice = experiment: Clinical score in MOG-induced experimental autoimmune encephalomyelitis (EAE); details: IFNβ analog peptide = SEQ ID No. 1
Description: In this example, therapeutic effects of the IFNβ analog peptide with SEQ ID No. 1 on the development of progressive experimental autoimmune encephalomyelitis (EAE) were studied. At first, EAE was induced in 8 weeks old C57BL/6 male mice with a weight between 20 grams and 25 grams. In order to induce EAE, mice were anesthetized with isoflurane and subcutaneously injected with 100 μl of MOG (myelin oligodendrocyte glycoprotein) with a concentration of about 2.5 g/l suspended in 100 μl complete Freund's adjuvant (CFA) into the hind flank. Mice were also intraperitoneally injected with 400 ng of pertussis toxin in 200 μl of phosphate buffered saline (PBS). A second, identical injection of pertussis toxin was given two days following the first immunization. Injections were distributed over four spots, for example about 100 μl per site across the flank areas. […]
After that, in order to conduct clinical evaluation, mice of the experimental groups were blinded scored as follows: score 0 for no overt signs of disease, score 1 for limp tail, score 2 for limp tail and hind limb weakness, score 3 for partial hind limb paralysis of one side (hemiparesis) or both sides (paraparesis), score 4 for complete hind limb paralysis of one side (hemiplegia) or both sides (paraplegia), score 5 for moribund state. The day of immunization was considered as EAE day 0 and clinical behavior of mice was scored daily. […]

interleukin 1β (IL1β) = experiment: Plasma IL1β of EAE mice, ELISA; details: 21 days after EAE induction
Description: (§1) Moreover, after 21 days of EAE induction, mice were euthanized and their blood was obtained via cardiac puncture and plasma was prepared. Expression levels of tumor necrosis factor-alpha (TNFα) and interleukin 1β (IL1β) as circulating inflammatory biomarkers were measured in the plasma using quantitative enzyme-linked immunosorbent assay (ELISA) kits.

CD45 positive cells = CD45 positive cells in cerebral cortex of EAE mice; details: 10 and 20 mg/kg, particularly 20 mg/kg, day 21
Description: (§2) Furthermore, brain inflammatory response after IFNβ analog peptide treatment as the IFNβ analog peptide was evaluated by measuring the number of IL-17 positive cells, CD11b positive cells, and CD45 positive cells. IL-17 is the most important pro-inflammatory cytokine produced by T-helper cells, CD11b is an activated macrophages and microglia marker, and CD45 is a general leukocytes marker.
(§3) After 21 days of EAE induction, mice were euthanized and were transcardially perfused with PBS. Then, the brains were dissected; cerebral cortex was isolated and snap-frozen in liquid nitrogen.

[1] = test system: tumor necrosis factor-alpha (TNFα); experiment: Plasma TNFα of EAE mice, ELISA; details: 21 days after EAE induction
Description: as §1

IL-17 positive cells = IL-17 positive cells in cerebral cortex of EAE mice; details: 10 and 20 mg/kg, particularly 20 mg/kg, day 21
Description: as §2, §3

[2] = test system: matrix metalloproteinase 2 (MMP2); experiment: MMP2 gene expression in brain tissue of EAE mice, quantitative real-time PCR; details: 20 mg/kg
Description: (§4) In this example, effects of the IFNβ analog peptide as the IFNβ analog peptide on the expression of some related inflammations mediators such as matrix metalloproteinase 2 (MMP2) and matrix metalloproteinase 9 (MMP9) were studied using quantitative real-time polymerase chain reaction (PCR).
(§5) The EAE mice were treated with PBS as the vehicle group, and dosage of the IFNβ analog peptide and IFNβ was 20 mg/kg in IFNβ analog peptide-treated mice and IFNβ-treated mice groups. After that RNA of the cells was extracted and their cDNA was synthesized.

[3] = test system: matrix metalloproteinase 9 (MMP9); experiment: MMP9 gene expression in brain tissue of EAE mice, quantitative real-time PCR; details: 20 mg/kg
Description: as §4, §5

CD11b positive cells = CD11b positive cells in cerebral cortex of EAE mice; details: 10 and 20 mg/kg, particularly 20 mg/kg, day 21
Description: as §2, §3

[4] = P<0.05, SEQ ID of peptide not stated in Example 6

IFNβ: Interferon-beta, first-line treatment for relapsing-remitting multiple sclerosis; comparator
Effect of raising the dose on EAE clinical symptoms (EAE-induced C57BL/6 mice; 20 mg/kg versus 10 mg/kg): improved disease protection
Mean clinical score (AUC) versus vehicle group and EAE group (EAE-induced C57BL/6 mice; 10 and 20 mg/kg injected on day 14 of EAE induction): significant reduction in the clinical score
Reduction of IL1β, IFNβ versus IFNβ analog peptide (interleukin 1β (IL1β)): reduction of these inflammation mediators was more in IFNβ-treated mice
Plasma level of IL1β compared to the vehicle group (interleukin 1β (IL1β); P-value<0.05): significant decrease
Percentage of CD45 positive cells in the cerebral cortex (CD45 positive cells): considerably decreased
Reduction of TNFα, IFNβ versus IFNβ analog peptide [1]: reduction of these inflammation mediators was more in IFNβ-treated mice
Plasma level of TNFα compared to the vehicle group ([1]; P-value<0.05): significant decrease
Percentage of IL-17 positive cells in the cerebral cortex (IL-17 positive cells): considerably decreased
Reduction of MMP2, IFNβ versus IFNβ analog peptide [2]: reduction of these inflammation mediators was more in IFNβ-treated mice
MMP2 gene expression fold change in the brain tissue compared to the vehicle group [2, 4]: significant decrease
Reduction of MMP9, IFNβ versus IFNβ analog peptide [3]: reduction of these inflammation mediators was more in IFNβ-treated mice
MMP9 gene expression fold change in the brain tissue compared to the vehicle group [3, 4]: significant decrease
Percentage of CD11b positive cells in the cerebral cortex (CD11b positive cells): considerably decreased
